Legend:
[1] = In vivo pharmacokinetic study in rats; conditions: rat, plasma, oral, 10 mg/kg
Protocol: Blood was collected from rats at different times after administration at the following time points: 0.083 h, 0.25 h, 0.5 h, 1 h, 2 h, 4 h, 8 h, and 24 h after intravenous administration; 0.25 h, 0.5 h, 1 h, 2 h, 4 h, 6 h, 8 h, and 24 h after oral administration. About 0.20 mL of blood was collected via jugular vein or other suitable means for each sample at the corresponding time, with heparin sodium for anticoagulation; the blood sample was placed on ice after collection and centrifuged within 1 h to separate the plasma (centrifugation conditions: centrifugal force 6800 g, 6 min, 2-8° C.). The collected plasma samples were stored in a refrigerator at −80° C. before analysis, and the remaining plasma samples continued to be temporarily stored in the refrigerator at −80° C. for one month after analysis.
Pharmacokinetic parameters such as AUC (0-t), T1/2, Cmax, Tmax, and MRT were calculated using WinNonlin based on plasma concentration data at different time points. The plasma drug concentration-time curve was plotted with BLQ recorded as 0. For the calculation of pharmacokinetic parameters, the concentration before administration was calculated as 0; BLQ before Cmax (including “No peak”) was calculated as 0; no BLQ (including “No peak”) appeared after Cmax participated in the calculation. The experiment was completed by Shanghai Medicilon Inc.

[2] = molecular target: PI3 Kinase (p110d/p85a)(h) (Homo sapiens (Human), UniProt O00329); experiment: Kinase Profiler 10 μM panel
Protocol: (§1) In vitro kinase assays were conducted using Kinase Profiler services provided by Eurofins. The experimental method was as follows: the small molecule compound to be tested (0.001-10 μM), the protein kinase to be tested were incubated with a buffer containing substrate, 10 mM magnesium acetate, and [γ-^33P-ATP], the reaction was started by adding Mg\TPmix, after incubation for a period of time at room temperature, a 3% phosphate solution was added to the buffer to stop the reaction. Subsequently, 10 μL of the reaction mixture was quantitatively pipetted onto P30 filter paper, which was washed three times with 75 mM phosphate solution and then once with methanol. The P30 filter paper was air-dried and scintillation fluid was added for scintillation counting.

GRK6(h) = GRK6(h) (Homo sapiens (Human), UniProt P43250); experiment: Kinase Profiler 10 μM panel
Protocol: as §1

ICK(h) = ICK(h) (Homo sapiens (Human), UniProt Q9UPZ9); experiment: Kinase Profiler 10 μM panel
Protocol: as §1

IR(h), activated = IR(h), activated (Homo sapiens (Human), UniProt P06213); experiment: Kinase Profiler 10 μM panel
Protocol: as §1

BTK(R28H)(h) = BTK(R28H)(h) (Homo sapiens (Human), UniProt Q06187, R28H); experiment: Kinase Profiler 10 μM panel
Protocol: as §1

JAK2(h) = JAK2(h) (Homo sapiens (Human), UniProt O60674); experiment: Kinase Profiler 10 μM panel
Protocol: as §1

CaMKIV(h) = CaMKIV(h) (Homo sapiens (Human), UniProt Q16566); experiment: Kinase Profiler 10 μM panel
Protocol: as §1

MAP4K5(h) = MAP4K5(h) (Homo sapiens (Human), UniProt Q9Y4K4); experiment: Kinase Profiler 10 μM panel
Protocol: as §1

MAPKAP-K2(h) = MAPKAP-K2(h) (Homo sapiens (Human), UniProt P49137); experiment: Kinase Profiler 10 μM panel
Protocol: as §1

Rsk1(h) = Rsk1(h) (Homo sapiens (Human), UniProt Q15418); experiment: Kinase Profiler 10 μM panel
Protocol: as §1

CDKL1(h) = CDKL1(h) (Homo sapiens (Human), UniProt Q00532); experiment: Kinase Profiler 10 μM panel
Protocol: as §1

MARK4(h) = MARK4(h) (Homo sapiens (Human), UniProt Q96L34); experiment: Kinase Profiler 10 μM panel
Protocol: as §1

SAPK2a(h) = SAPK2a(h) (Homo sapiens (Human), UniProt Q16539); experiment: Kinase Profiler 10 μM panel
Protocol: as §1

SNRK(h) = SNRK(h) (Homo sapiens (Human), UniProt Q9NRH2); experiment: Kinase Profiler 10 μM panel
Protocol: as §1

MKK6(h) = MKK6(h) (Homo sapiens (Human), UniProt P52564); experiment: Kinase Profiler 10 μM panel
Protocol: as §1

SRPK1(h) = SRPK1(h) (Homo sapiens (Human), UniProt Q96SB4); experiment: Kinase Profiler 10 μM panel
Protocol: as §1

Mnk2(h) = Mnk2(h) (Homo sapiens (Human), UniProt Q9HBH9); experiment: Kinase Profiler 10 μM panel
Protocol: as §1

MRCKα(h) = MRCKα(h) (Homo sapiens (Human), UniProt Q5VT25); experiment: Kinase Profiler 10 μM panel
Protocol: as §1

Syk(h) = Syk(h) (Homo sapiens (Human), UniProt P43405); experiment: Kinase Profiler 10 μM panel
Protocol: as §1

MST1(h) = MST1(h) (Homo sapiens (Human), UniProt Q13043); experiment: Kinase Profiler 10 μM panel
Protocol: as §1

DDR1(h) = DDR1(h) (Homo sapiens (Human), UniProt Q08345); experiment: Kinase Profiler 10 μM panel
Protocol: as §1

MYO3B(h) = MYO3B(h) (Homo sapiens (Human), UniProt Q8WXR4); experiment: Kinase Profiler 10 μM panel
Protocol: as §1

TNIK(h) = TNIK(h) (Homo sapiens (Human), UniProt Q9UKE5); experiment: Kinase Profiler 10 μM panel
Protocol: as §1

TSSK4(h) = TSSK4(h) (Homo sapiens (Human), UniProt Q6SA08); experiment: Kinase Profiler 10 μM panel
Protocol: as §1

PDHK2(h) = PDHK2(h) (Homo sapiens (Human), UniProt Q15119); experiment: Kinase Profiler 10 μM panel
Protocol: as §1

PhKγ1(h) = PhKγ1(h) (Homo sapiens (Human), UniProt Q16816); experiment: Kinase Profiler 10 μM panel
Protocol: as §1

PhKγ2(h) = PhKγ2(h) (Homo sapiens (Human), UniProt P15735); experiment: Kinase Profiler 10 μM panel
Protocol: as §1

Mnk2(h), sequence (Q9HBH9 whole entry): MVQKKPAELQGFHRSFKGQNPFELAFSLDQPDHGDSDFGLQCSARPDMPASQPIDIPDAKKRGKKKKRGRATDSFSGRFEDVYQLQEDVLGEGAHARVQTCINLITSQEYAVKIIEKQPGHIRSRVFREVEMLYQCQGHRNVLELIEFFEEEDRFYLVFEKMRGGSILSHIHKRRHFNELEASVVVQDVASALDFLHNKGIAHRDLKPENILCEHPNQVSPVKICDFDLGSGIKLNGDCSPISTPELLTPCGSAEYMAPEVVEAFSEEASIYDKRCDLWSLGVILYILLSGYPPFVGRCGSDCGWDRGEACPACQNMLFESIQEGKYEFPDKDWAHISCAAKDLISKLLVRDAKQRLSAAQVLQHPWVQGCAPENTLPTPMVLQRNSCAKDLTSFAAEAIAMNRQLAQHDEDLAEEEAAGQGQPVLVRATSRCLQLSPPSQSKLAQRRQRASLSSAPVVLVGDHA
MRCKα(h), sequence (Q5VT25 whole entry): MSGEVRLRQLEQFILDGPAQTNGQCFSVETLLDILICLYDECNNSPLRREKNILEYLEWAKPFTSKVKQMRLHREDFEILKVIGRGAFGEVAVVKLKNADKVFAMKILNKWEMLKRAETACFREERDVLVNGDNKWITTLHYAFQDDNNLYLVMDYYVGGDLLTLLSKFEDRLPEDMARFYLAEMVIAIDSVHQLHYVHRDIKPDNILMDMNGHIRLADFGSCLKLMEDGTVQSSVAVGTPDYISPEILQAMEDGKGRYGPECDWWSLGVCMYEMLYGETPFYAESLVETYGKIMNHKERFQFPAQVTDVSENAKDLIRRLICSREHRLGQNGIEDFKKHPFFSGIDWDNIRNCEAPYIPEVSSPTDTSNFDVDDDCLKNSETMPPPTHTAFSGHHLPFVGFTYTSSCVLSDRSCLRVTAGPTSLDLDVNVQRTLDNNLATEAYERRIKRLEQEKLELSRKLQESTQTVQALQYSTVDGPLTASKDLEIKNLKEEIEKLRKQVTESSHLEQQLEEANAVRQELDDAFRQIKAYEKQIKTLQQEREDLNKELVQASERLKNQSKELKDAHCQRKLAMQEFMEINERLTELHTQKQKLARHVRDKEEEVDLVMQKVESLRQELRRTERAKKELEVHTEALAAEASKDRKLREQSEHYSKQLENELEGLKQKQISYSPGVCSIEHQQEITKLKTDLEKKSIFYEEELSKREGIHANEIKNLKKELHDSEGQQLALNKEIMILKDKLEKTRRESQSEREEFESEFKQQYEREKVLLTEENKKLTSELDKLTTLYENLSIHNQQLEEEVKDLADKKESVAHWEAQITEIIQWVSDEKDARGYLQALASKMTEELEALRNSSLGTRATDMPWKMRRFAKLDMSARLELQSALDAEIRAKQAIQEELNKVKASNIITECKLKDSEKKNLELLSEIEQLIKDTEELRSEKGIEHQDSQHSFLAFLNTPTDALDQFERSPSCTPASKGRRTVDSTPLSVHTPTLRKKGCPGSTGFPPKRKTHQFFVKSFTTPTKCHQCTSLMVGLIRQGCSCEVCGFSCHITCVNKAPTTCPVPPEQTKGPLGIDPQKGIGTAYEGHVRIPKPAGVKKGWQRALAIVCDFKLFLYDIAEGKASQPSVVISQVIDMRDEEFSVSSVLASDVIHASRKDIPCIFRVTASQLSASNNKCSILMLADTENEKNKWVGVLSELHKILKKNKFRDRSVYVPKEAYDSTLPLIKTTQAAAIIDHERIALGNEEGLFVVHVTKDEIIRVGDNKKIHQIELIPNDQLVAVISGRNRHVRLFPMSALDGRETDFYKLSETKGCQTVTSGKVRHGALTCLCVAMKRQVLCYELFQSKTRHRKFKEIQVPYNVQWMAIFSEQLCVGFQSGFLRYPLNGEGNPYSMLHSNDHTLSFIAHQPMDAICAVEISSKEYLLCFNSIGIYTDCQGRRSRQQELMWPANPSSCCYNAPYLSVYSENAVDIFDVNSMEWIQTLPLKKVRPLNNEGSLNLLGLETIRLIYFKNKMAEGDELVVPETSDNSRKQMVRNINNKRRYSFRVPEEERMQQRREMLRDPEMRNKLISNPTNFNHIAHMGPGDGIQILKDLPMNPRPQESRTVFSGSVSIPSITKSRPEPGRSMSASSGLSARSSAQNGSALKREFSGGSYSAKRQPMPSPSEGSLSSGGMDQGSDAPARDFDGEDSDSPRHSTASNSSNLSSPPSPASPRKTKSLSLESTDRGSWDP
TSSK4(h), sequence (Q6SA08 whole entry): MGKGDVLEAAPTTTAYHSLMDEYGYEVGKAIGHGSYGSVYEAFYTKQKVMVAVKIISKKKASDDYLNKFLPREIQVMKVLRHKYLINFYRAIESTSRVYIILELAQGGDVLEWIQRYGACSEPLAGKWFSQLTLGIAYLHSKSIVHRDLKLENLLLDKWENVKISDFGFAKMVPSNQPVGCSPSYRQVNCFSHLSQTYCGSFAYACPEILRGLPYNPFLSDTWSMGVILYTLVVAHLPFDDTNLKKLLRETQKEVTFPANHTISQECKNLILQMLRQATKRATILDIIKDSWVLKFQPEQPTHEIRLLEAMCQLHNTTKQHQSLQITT
TNIK(h), sequence (Q9UKE5 whole entry): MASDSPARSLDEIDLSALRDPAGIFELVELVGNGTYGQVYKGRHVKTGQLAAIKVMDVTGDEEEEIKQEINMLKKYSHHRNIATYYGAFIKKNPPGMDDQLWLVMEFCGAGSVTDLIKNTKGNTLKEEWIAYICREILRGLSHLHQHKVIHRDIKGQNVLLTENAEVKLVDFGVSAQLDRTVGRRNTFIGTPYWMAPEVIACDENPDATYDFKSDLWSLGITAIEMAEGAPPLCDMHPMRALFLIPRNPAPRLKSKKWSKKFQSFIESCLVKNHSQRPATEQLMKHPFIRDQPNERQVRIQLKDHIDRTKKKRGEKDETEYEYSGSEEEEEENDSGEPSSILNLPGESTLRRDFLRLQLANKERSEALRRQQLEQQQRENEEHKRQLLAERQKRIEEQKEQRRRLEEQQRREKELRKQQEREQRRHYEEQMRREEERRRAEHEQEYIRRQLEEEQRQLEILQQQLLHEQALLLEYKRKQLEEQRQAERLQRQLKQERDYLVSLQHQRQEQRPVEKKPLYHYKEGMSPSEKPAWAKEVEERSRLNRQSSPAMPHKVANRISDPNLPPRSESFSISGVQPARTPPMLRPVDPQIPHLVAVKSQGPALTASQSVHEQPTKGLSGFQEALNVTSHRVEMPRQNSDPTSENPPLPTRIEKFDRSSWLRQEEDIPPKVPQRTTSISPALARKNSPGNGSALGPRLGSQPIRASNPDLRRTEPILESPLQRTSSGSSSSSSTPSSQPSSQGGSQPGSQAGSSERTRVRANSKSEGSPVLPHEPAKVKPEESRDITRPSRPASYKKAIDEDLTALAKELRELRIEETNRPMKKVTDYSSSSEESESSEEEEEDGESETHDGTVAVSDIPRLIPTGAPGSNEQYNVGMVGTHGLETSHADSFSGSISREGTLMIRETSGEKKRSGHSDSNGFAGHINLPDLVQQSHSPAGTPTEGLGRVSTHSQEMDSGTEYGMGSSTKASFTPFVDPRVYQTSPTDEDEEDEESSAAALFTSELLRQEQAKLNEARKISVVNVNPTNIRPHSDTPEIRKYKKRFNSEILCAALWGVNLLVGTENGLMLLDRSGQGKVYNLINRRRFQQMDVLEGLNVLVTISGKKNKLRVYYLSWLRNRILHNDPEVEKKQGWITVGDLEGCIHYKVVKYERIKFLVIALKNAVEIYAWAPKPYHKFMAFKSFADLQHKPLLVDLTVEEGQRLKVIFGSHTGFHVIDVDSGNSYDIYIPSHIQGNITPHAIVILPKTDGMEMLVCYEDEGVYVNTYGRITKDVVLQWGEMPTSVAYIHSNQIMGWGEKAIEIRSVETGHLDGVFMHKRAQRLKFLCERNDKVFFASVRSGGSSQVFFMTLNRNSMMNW
MAP4K5(h), sequence (Q9Y4K4 whole entry): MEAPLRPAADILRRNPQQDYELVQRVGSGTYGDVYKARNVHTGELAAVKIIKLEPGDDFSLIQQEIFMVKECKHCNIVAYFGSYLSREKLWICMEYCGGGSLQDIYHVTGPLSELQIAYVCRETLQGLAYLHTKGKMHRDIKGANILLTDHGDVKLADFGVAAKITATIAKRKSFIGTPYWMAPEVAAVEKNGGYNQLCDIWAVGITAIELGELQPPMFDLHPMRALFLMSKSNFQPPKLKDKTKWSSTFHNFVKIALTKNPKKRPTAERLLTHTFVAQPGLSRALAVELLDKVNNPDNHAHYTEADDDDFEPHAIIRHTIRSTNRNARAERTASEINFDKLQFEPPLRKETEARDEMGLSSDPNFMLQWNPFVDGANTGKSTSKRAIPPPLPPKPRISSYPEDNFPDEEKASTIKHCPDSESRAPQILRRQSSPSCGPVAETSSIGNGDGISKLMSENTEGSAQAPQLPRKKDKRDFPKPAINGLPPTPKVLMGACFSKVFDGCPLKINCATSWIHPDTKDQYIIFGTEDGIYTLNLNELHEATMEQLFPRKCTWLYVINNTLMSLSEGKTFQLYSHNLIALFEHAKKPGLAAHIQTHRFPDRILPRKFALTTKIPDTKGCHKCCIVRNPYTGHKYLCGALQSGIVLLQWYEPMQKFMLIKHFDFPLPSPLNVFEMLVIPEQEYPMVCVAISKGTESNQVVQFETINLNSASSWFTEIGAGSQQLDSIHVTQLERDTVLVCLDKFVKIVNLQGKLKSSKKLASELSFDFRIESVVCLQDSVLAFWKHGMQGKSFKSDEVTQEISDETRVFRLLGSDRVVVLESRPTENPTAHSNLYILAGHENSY
MKK6(h), sequence (P52564 whole entry): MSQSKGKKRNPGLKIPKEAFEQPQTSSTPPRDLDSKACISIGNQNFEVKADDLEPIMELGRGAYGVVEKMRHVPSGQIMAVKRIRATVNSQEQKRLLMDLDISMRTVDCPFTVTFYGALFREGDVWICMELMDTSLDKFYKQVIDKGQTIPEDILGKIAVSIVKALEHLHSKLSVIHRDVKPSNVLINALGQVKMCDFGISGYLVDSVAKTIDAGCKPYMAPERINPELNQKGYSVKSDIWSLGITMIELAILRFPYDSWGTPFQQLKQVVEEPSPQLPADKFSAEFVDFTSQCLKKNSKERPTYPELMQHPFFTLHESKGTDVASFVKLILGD

For C[C@H](NC(=O)c1c[nH]c2ccc(-c3ccc4nc(NC(=O)C5CC5)sc4c3)cc12)c1cccc(F)c1 [Compound 34, (S)-5-(2-(cyclopropanecarboxamido)benzo[d]thiazol-6-yl)-N-(1-(3-fluorophenyl)ethyl)-1H-indole-3-carboxamide], the AUC(0-t) [1] was 4450 ng·h/mL, the Cmax [1] was 852 ng/mL and the Tmax [1] was 4 h. For the same molecule, the bioavailability [1] was 7.89%, the half-life [1] was 2.06 h and the Inhibition ratio [2] was 54%. The Inhibition ratio (GRK6(h)) was 0%, the Inhibition ratio (ICK(h)) was 7% and the Inhibition ratio (IR(h), activated) was 13%. It also gave an Inhibition ratio (BTK(R28H)(h)) of 1%, an Inhibition ratio (JAK2(h)) of 11% and an Inhibition ratio (CaMKIV(h)) of 20%. For the same molecule, the Inhibition ratio (MAP4K5(h)) was 64%, the Inhibition ratio (MAPKAP-K2(h)) was −7% and the Inhibition ratio (Rsk1(h)) was 37%. It also gave an Inhibition ratio (CDKL1(h)) of 50%, an Inhibition ratio (MARK4(h)) of 3% and an Inhibition ratio (SAPK2a(h)) of 29%. It also gave an Inhibition ratio (SNRK(h)) of −24%, an Inhibition ratio (MKK6(h)) of 7% and an Inhibition ratio (SRPK1(h)) of 29%. For the same molecule, the Inhibition ratio (Mnk2(h)) was 38%, the Inhibition ratio (MRCKα(h)) was 12% and the Inhibition ratio (Syk(h)) was 98%. For the same molecule, the Inhibition ratio (MST1(h)) was 5%, the Inhibition ratio (DDR1(h)) was 51% and the Inhibition ratio (MYO3B(h)) was 16%. It also gave an Inhibition ratio (TNIK(h)) of 99%, an Inhibition ratio (TSSK4(h)) of 13% and an Inhibition ratio (PDHK2(h)) of 3%. It also gave an Inhibition ratio (PhKγ1(h)) of 16% and an Inhibition ratio (PhKγ2(h)) of 5%.

C[C@H](NC(=O)c1cn(C)c2ccc(-c3ccn4nc(NC(=O)C5CC5)nc4c3)cc12)c1cccc(F)c1 [Compound 94, (S)-5-(2-(cyclopropanecarboxamido)-[1,2,4]triazolo[1,5-a]pyridin-7-yl)-N-(1-(3-fluorophenyl)ethyl)-1-methyl-1H-indole-3-carboxamide] gave an AUC(0-t) [1] of 1850 ng·h/mL, a Cmax [1] of 330 ng/mL and a Tmax [1] of 1.67 h. The bioavailability [1] was 12.1%, the half-life [1] was 7.02 h and the Inhibition ratio/% [2] was −1%. The Inhibition ratio/% (GRK6(h)) was 2%, the Inhibition ratio/% (ICK(h)) was 52% and the Inhibition ratio/% (IR(h), activated) was 35%. The Inhibition ratio/% (BTK(R28H)(h)) was 77%, the Inhibition ratio/% (JAK2(h)) was 45% and the Inhibition ratio/% (CaMKIV(h)) was 21%. For the same molecule, the Inhibition ratio/% (MAP4K5(h)) was 6%, the Inhibition ratio/% (MAPKAP-K2(h)) was −1% and the Inhibition ratio/% (Rsk1(h)) was 41%. For the same molecule, the Inhibition ratio/% (CDKL1(h)) was 35%, the Inhibition ratio/% (MARK4(h)) was 38% and the Inhibition ratio/% (SAPK2a(h)) was 17%. It also gave an Inhibition ratio/% (SNRK(h)) of 25%, an Inhibition ratio/% (MKK6(h)) of 30% and an Inhibition ratio/% (SRPK1(h)) of 50%. It also gave an Inhibition ratio/% (Mnk2(h)) of 51%, an Inhibition ratio/% (MRCKα(h)) of −19% and an Inhibition ratio/% (Syk(h)) of 69%. The Inhibition ratio/% (MST1(h)) was 20%, the Inhibition ratio/% (DDR1(h)) was 21% and the Inhibition ratio/% (MYO3B(h)) was −18%. For the same molecule, the Inhibition ratio/% (TNIK(h)) was 59%, the Inhibition ratio/% (TSSK4(h)) was 49% and the Inhibition ratio/% (PDHK2(h)) was 32%. The Inhibition ratio/% (PhKγ1(h)) was −12% and the Inhibition ratio/% (PhKγ2(h)) was 48%.

Source: patent US20230365546A1, “5-SUBSTITUTED INDOLE 3-AMIDE DERIVATIVES, PREPARATION METHOD AND USE THEREOF” (ORIGIANT PHARMACEUTICAL CO., LTD, priority 2020, published 2023)
